Consider 9 substances from patent publication US20070167387A1, “Novel artificial nucleic acids of n-o bond crosslinkage type” (TAKESHI IMANISHI, priority 2003, published 2007).

Holding throughout (assay type): binding
Data set [1] relates to RNA strand (5′-AGCAAAAAACGC-3′). Kind of data set: Melting point (Tm) measurement, duplex-forming capacity with RNA strand. The conditions noted are these: 100 mM NaCl, 10 mM Na2HPO4 buffer (pH7.2), [strand] = 4 μM, average of 3 or more experiments. The procedure:
(§1) The oligonucleotide analogues (1) to (5) and (13) to (17) synthesized in the Examples (i.e., antisense strands), and a sense strand of a natural DNA or RNA oligonucleotide were annealed. The melting points (Tm) of the annealing products were measured to investigate the duplex-forming capacity of the antisense strands.
(§2) Sample solutions (500 μL) with end concentrations of NaCl 100 mM, sodium phosphate buffer (pH 7.2) 10 mM, antisense strand 4 μM, and sense strand 4 μM were bathed in boiling water, and cooled down to room temperature over the course of 10 hours. A stream of nitrogen was flowed through a cell chamber of a spectrophotometer (Beckman, DU-650) to prevent dew formation, and the sample solutions were gradually cooled down to 5° C. Further, the sample solutions were maintained at 10° C. for 20 minutes, and then their measurements were started. The temperature was raised up to 90° C. at a rate of 0.5° C./min, and the ultraviolet absorption at 260 nm was measured.

Data set [2] concerns DNA strand (5′-AGCAAAAAACGC-3′). Briefly: Melting point (Tm) measurement, duplex-forming capacity with DNA strand. The conditions noted are these: 100 mM NaCl, 10 mM Na2HPO4 buffer (pH7.2), [strand] = 4 μM, average of 3 or more experiments. The procedure:
as §1, §2

Data set [3] has as its system dsDNA 5′-d(GCT AAAAAGAAAGAGAGATCG)-3′ / 3′-d(CGATTTTTCTTTCTCTCTAGC)-5′. Kind of data set: Tm measurement, triplex-forming capacity with dsDNA (Table 5-1). The conditions noted are these: 140 mM KCl, 7 mM Na2HPO4 buffer (pH 7.0), each strand 1.5 μM. The procedure: as §2
(§3) In connection with the oligonucleotide analogues (6) to (11) and (18) to (21) synthesized in the Examples, the triplex-forming capacity with the target double-stranded DNA's indicated below was investigated by the same method as in Experimental Example 1. The salt concentrations and pH during measurement complied with the conditions described below the respective tables.

Data set [4] relates to dsDNA 5′-d(GCTGCT AAAAAGAAAGAGAGATCGTCG)-3′ / 3′-d(CGACGATTTTTCTTTCTCTCTAGCAGC)-5′. Briefly: Tm measurement, triplex-forming capacity with dsDNA, with MgCl2 (Table 5-2). The conditions noted are these: 140 mM KCl, 10 mM MgCl2, 7 mM Na2HPO4 buffer (pH 7.0), each strand 1.5 μM. The procedure: as §2, §3
The test system of data set [5] is dsDNA 5′-d([…])-3′ / 3′-d(CGATTTTTCTNTCTCTCTAGC)-5′. Kind of data set: Sequence selective triplex-formation, match and mismatch dsDNA (Table 5-3). As to conditions: for Tm: 140 mM KCl, 7 mM sodium phosphate buffer (pH 7.0), each strand 1.5 μM. The procedure:
as §2, §3

“5′-GCGTTTTTTGCT-3′ (unmodified DNA) [natural antisense strand, reference compound]”: the Tm was 45 °C in data set [1] and 50 °C in data set [2].

With “5′-TTTTT^mCTTT^mCT^mCT^mCT-3′ (TTTTTCTTTCTCTCT; all C 5-methyl, sugars by position and backbone not given here) [unmodified triplex-forming oligonucleotide, Z = natural T, reference compound]”, the Tm in data set [3] came out at 33 °C; in data set [4], 43 °C; in data set [5] (M·N = A·T (match)) it was 43 °C; in data set [5] (M·N = C·G (mismatch)), 25 °C; in data set [5] (M·N = G·C (mismatch)), 21 °C; in data set [5] (M·N = T·A (mismatch)), 18 °C. Besides, the “ΔTm = Tm(mismatch) − Tm(match)” value in data set [5] (M·N = C·G) is −18 °C; in data set [5] (M·N = G·C), −22 °C; in data set [5] (M·N = T·A), −25 °C.

In the case of “5′-TTTTT^mCYYY^mCT^mCT^mCT-3′ [Oligonucleotide analogue (20)]”, the Tm in data set [3] was found to be 59 °C; in data set [4], 71 °C. The results for the ΔTm/modification entry in data set [3] and in data set [4] were “+8.7 °C” and “+9.3 °C”, respectively.

Turning to “5′-TTTTX^mCTXT^mCX^mCT^mCT-3′ [Oligonucleotide analogue (7)]”, the Tm in data set [3] amounted to 47 °C; in data set [4], 61 °C. Further, the ΔTm/modification result in data set [3] is “+4.6 °C”; in data set [4] it was “+6.0 °C”.

Turning to “5′-TTTTY^mCTYT^mCY^mCT^mCT-3′ [Oligonucleotide analogue (19)]”, in data set [3], the Tm came to 60 °C and the ΔTm/modification entry was “+9.0 °C”. Also, in data set [4], the Tm amounted to 73 °C and the ΔTm/modification result was “+10.0 °C”.

As to “5′-TXTTX^mCTXT^mCX^mCTX*T-3′ [Oligonucleotide analogue (10)]”, the Tm was determined as 50 °C in data set [3] and 63 °C in data set [4]. The ΔTm/modification result in data set [3] was “+3.4 °C”; in data set [4] it was “+4.0 °C”.

For “5′-XTTTX^mCTTX^mCT^mCX^mCT-3′ [Oligonucleotide analogue (11)]”, in data set [3], the Tm amounted to 45 °C and the ΔTm/modification result was “+3.0 °C”. In data set [4], the Tm was determined as 59 °C and the ΔTm/modification result was “+4.0 °C”.

“5′-XTXTX^mCXTX^mCX^mCX^mCT-3′ [Oligonucleotide analogue (9)]”: in data set [3], the Tm was 59 °C and the ΔTm/modification result is “+3.7 °C”. Besides, in data set [4], the Tm is more than 80 °C and the ΔTm/modification entry is “> +5 °C”.

For the substance “5′-YTYTY^mCYTY^mCY^mCY^mCT-3′ [Oligonucleotide analogue (21)]”, in data set [3], the Tm came to 78 °C and the ΔTm/modification result is “+6.4 °C”. In addition, in data set [4], the Tm is more than 80 °C and the ΔTm/modification entry is “> +5 °C”.
